Assay results reported in paper PMC9184620, “TAS1553, a small molecule subunit interaction inhibitor of ribonucleotide reductase, exhibits antitumor activity by causing DNA replication stress” (Communications Biology, 2022).

How the values were obtained:
[1] = test system: MV-4-11 xenograft; experiment: Antitumor activity in rats bearing MV-4-11 xenografts; type: in vivo
Experimental: (§1) Next, we evaluated the antitumor activity of a high-dose administration of TAS1553 and cytarabine in rats bearing MV-4-11 xenografts. […] The rats were treated with cytarabine for 5 days at 16 and 32 mg/kg. […] In addition to the hematologic tumor, we evaluated the antitumor activity of TAS1553 in mice implanted with HCC38 cell line as a solid tumor model. […] Finally, TAS1553 was evaluated for its survival benefit in a mouse model. To achieve this, we established mice bone marrow cells harboring the human MLL-AF9 fusion gene, which is known as a driver gene for AML in humans as well as mice[48].
For the subcutaneous implantation model of MV-4-11, F344/NJcl-rnu/rnu rats were irradiated with X-ray (4 Gy) to improve the efficiency of xenograft implantation. Two days after X-ray irradiation, MV-4-11 cells suspended in PBS with 50 vol% Matrigel were inoculated into the rats (2 × 10^7 cells/animal). In the mice subcutaneous implantation model, HCC38 cells suspended same as above were inoculated into male BALB/cAJcl-nu/nu mice (1 × 10^7 cells /body). […] Antitumor activity and body weight change were evaluated as previously reported. Dunnett test using the SAS software package in EXSUS (CAC Croit) was used to compare the tumor volume (P < 0.05).

[2] = test system: MV-4-11 cells; experiment: Cell proliferation assay (CellTiter-Glo), MV-4-11; type: cell-based; conditions: Homo sapiens, MV4-11, 72 h; MV-4-11, 3 days exposure
Experimental: Next, we evaluated both concentration-dependent and time-dependent effects of TAS1553 on the dATP pool in HCC38 and MV-4-11 cell lines using absolute quantification. After 2 h of TAS1553 exposure, there was a concentration-dependent reduction of intracellular dATP pool in both cell lines (Fig. 2c). Furthermore, the intracellular dATP pool was reduced within 30 minutes when treated with TAS1553 at 1 or 10 µmol/L in both cell lines (Fig. 2d), consistent with its inhibitory effect on the protein-protein interaction (Fig. 2a).
Cell proliferation assay was performed as reported previously. Briefly, cells were plated and incubated for 1 day, followed by 3 days of exposure to the compound. After compound exposure, viable cells were detected by using the CellTiter-Glo luminescent cell viability assay (Promega). GI50 values were calculated using the SAS software package. The experiment was performed in triplicates.

[3] = Plasma exposure in rats; conditions: nude rats
Experimental: First, we analyzed the exposure of TAS1553 when administered orally.
as §1, with “mice[48]. Mice were transplanted with the cells through the tail vein and the treatment with TAS1553 was started 11 days post-implantation.” for “mice[48].”
F344/NJcl-rnu/rnu rats were orally administered with TAS1553 (two animals per group). The plasma samples were collected at each point. TAS1553 concentrations in plasma were measured with the LC-MS/MS.

[4] = test system: 68 proteins (ion channels, transporters, nuclear receptors, G protein-coupled receptors); experiment: Eurofins LeadProfilingScreen panel assay; type: binding; conditions: 10 μmol/L; significant defined as >50% inhibition for each target protein
Experimental: The binding affinity of TAS1553 to the R1 subunit was investigated using surface plasmon resonance (SPR) binding analysis. […] Next, we evaluated the inhibitory effect of TAS1553 against the enzymatic activity of RNR, consisting of R1 and R2 recombinant proteins. RNR activity was determined by its ability to reduce cytidine diphosphate (CDP) to deoxycytidine diphosphate (dCDP), based on a previous report. […] In addition to the inhibitory effect on RNR, TAS1553 was evaluated in a Eurofins LeadProfilingScreen panel assay including 68 proteins, such as ion channels, transporters, nuclear receptors, and G protein-coupled receptors, to examine its potential adverse activity.

[5] = test system: HCC38 and MV-4-11 cells; experiment: Immunoblotting of DNA replication stress and apoptosis markers; type: cell-based, human; conditions: both cell lines
Experimental: Because dATP is a critical metabolite for DNA replication, we next examined whether TAS1553 caused DNA replication stress. We evaluated phosphorylation of Chk1 at Ser345 in HCC38 and MV-4-11 cells by treating them with TAS1553 for 2 h. […] Because phosphorylated RPA2 at Thr21 binds to single-strand DNA at the stalled replication fork[42], TAS1553 may cause the replication fork stalling. To test this possibility, we analyzed the nuclear localization of phosphorylated RPA2 at Thr21.
Next, we examined the effect of TAS1553 on apoptosis induction in HCC38 and MV-4-11 cells. We treated TAS1553 at 1 or 10 µmol/L for 24 h and analyzed the time-dependent change of cleaved PARP and cleaved caspase-3 (Fig. 2g). Compared with control cells (0 h), phosphorylation of Chk1 at Ser345 was increased after 1 h of TAS1553 treatment at 1 and 10 μmol/L in both cell lines. Phosphorylation of RPA2 was also detected after 2 h of treatment with TAS1553 at 10 μmol/L. Following the induction of replication stress and fork stalling, cleaved PARP and cleaved caspase-3 levels were increased in both cell lines after 4 h of TAS1553 treatment at 10 μmol/L or after 8 h of treatment at 1 μmol/L.
Immunoblotting analysis was performed as reported previously. […] Proteins were separated by SDS-PAGE and analyzed by Western blotting. […] The signals were detected with the ImageQuant LAS 4010 (GE Healthcare UK Ltd.).

[6] = 400 mg/kg oral once daily for 14 days

SMILES: Cc1ccc(F)c([C@@H](C)[C@H](NS(=O)(=O)c2ccc(Cl)cc2C(N)=O)c2n[nH]c(=O)o2)c1C [TAS1553, 5-chloro-2-{N-[(1S,2R)-2-(6-fluoro-2,3-dimethylphenyl)-1-(5-oxo-4,5-dihydro-1,3,4-oxadiazol-2-yl)propyl]sulfamoyl}benzamide]
- T/C (mean tumor volume treated/control) on Day 15 ([1]; 50 mg/kg oral once daily for 14 days): 52.0%
- T/C (mean tumor volume treated/control) on Day 15 ([1]; 100 mg/kg oral once daily for 14 days): 45.0%
- T/C (mean tumor volume treated/control) on Day 15 ([1]; 200 mg/kg oral once daily for 14 days): 29.4%
- body weight change [1, 6]: without a reduction in body weight
- tumor growth outcome [1, 6]: tumor disappearance in all the treated animals
- body weight change ([1]; 50, 100, 200 mg/kg oral once daily for 14 days): none of the groups showed any dramatic weight loss
- GI50 [2]: 393 nM
- plasma concentration after single oral dose [3]: dose-dependent rise
- inhibition in 68-protein panel [4]: no significant inhibition
- phosphorylation of Chk1 at Ser345 ([5]; 1 µmol/L, 2 h): markedly induced
- cleaved PARP and cleaved caspase-3 levels ([5]; after 4 h at 10 μmol/L or 8 h at 1 μmol/L): increased
